Consider 24 compounds from patent US11976054B2, “Amide derivative and preparation method therefore and use thereof in medicine” (Chengdu Baiyu Pharmaceutical Co., Ltd., priority 2019, dated 2024).

A value given as a limit tells only on which side of the number the result lay.

What is called IC50 is the point on the concentration scale where inhibition reaches its midpoint. A lower IC50 goes with greater potency. The term AUC denotes the area under the concentration-time curve, a measure of exposure. Broadly, the Vss is the apparent volume that relates the amount in the body to the concentration in plasma or blood. As a reminder, the Cmax is the highest concentration seen after dosing.

The subject of data set [1] is Human monocyte cell line THP-1. Description: Detection of THP-1 cell pyroptosis (Caspase-Glo 1 Inflammasome Assay). It is filed as cell-based. To be noted: 20 nM PMA 48 h, 1 μg/mL LPS, compound 3 h. As to the method:
Human monocyte cell line THP-1 (ATCC® TB-202TM) was cultured in RPMI-1640 culture medium containing […], 1 mM pyruvic acid, 0.05 mM β-mercaptoethanol and 10% double antibody under the culture conditions of 37° C. and […].
Cell counting was performed, THP-1 cells were seeded into a 96-well plate at 50000 per well, and 20 nM PMA was added for inducing at 37° C./5% CO2 for 48 h. The culture medium was then discarded, and 100 μL of serum-free RPMI-1640 medium containing 1 μg/mL LPS was added. 5 μL of compound or solvent control was added and 3-fold diluted in gradient from a maximum concentration of 10 μM, and 10 gradient concentrations were set. The mixtures were incubated at 37° C./5% CO2 for 3 h. After the incubation, the mixtures were centrifuged at 300 g for 5 min, and the culture medium was discarded. Pyroptosis assay was performed according to specific steps described in instructions of Caspase-Glo® 1 Inflammasome Assay kit. IC50 was calculated using GraphPad Prism7.0 software.

The nature of data set [2]: Pharmacokinetic analysis of compounds in rats. It is filed as in vivo, SD rats. Particulars: SD rats; for AUC / Cl / Vss / t1/2 / Cmax: plasma; for F %: po 10 mg/kg vs iv 1 mg/kg. On the procedure:
Healthy adult SD rats weighing 180-220 g were fasted (free access to water) overnight and divided into tail vein administration group and intragastric administration group. The tail vein administration group was subjected to blood collection of 0.1 mL from orbital venous plexus before the administration and 5 min, 15 min, 0.5 h, 1 h, 2 h, 4 h, 8 h, 12 h and 24 h after the administration, and plasma was separated out by centrifugation at 4° C. for 5 min and stored at −20° C. for test. The intragastric administration group was subjected to blood collection of 0.1 mL from orbital venous plexus before the administration and 5 min, 15 min, 0.5 h, 1 h, 2 h, 4 h, 8 h, 12 h and 24 h after the administration, and the subsequent treatment procedures were the same as those of the tail vein injection group. The concentration of parent drug in the plasma was determined by LC-MS/MS.

Setting [3] is: Homo sapiens, THP-1, THP-1 pyroptosis.

For the compound `C[C@@H](c1ccc2c(c1NC(=O)NS(=N)(=O)c1cc(C(C)(C)O)co1)CC2)C1CC1` (mixture of isomers) [Compound 38-1, RS- and SS-N-((3-((R)-1-cyclopropylethyl)bicyclo[4.2.0]octa-1(6),2,4-trien-2-yl)carbamoyl)-4-(2-hydroxypropan-2-yl)furan-2-sulfonimidamide], the IC50 in data set [1] (THP-1 pyroptosis) is ≤ 100 nM. Moreover, in data set [2] (iv (tail vein), 1 mg/kg), the “AUC” value was determined as 2112 ng·h/mL, the “Cl” value turned out to be 8.2 mL/min/kg, the “Vss” value was 0.679 L/kg and the “t1/2” value turned out to be 2.2 h. In addition, the F % in data set [2] worked out at 184%. Besides, in data set [2] (po (intragastric), 10 mg/kg), the exposure (AUC) was 38823 ng·h/mL, the “Cmax” value is given as 13267 ng/mL and the “t1/2” value is on record as 3.1 h.

Take `CC(c1ccc2c(c1NC(=O)NS(=N)(=O)c1cc(C(C)(C)O)co1)CCC2)C1CC1` (racemic) [Compound 8-2, (RS, SC)- and (SS, SC)-N-((5-(1-cyclopropylethyl)-2,3-dihydro-1H-inden-4-yl)carbamoyl)-4-(2-hydroxypropan-2-yl)furan-2-sulfonimidamide]: the IC50 in data set [1] (THP-1 pyroptosis) lay within 500 to 1000 nM. In addition, in data set [2] (iv (tail vein), 1 mg/kg), the “AUC” value turned out to be 2170 ng·h/mL, the “Cl” value was determined as 7.8 mL/min/kg, the “Vss” value is 0.656 L/kg and the “t1/2” value was found to be 2.0 h. In data set [2], the F % was 66.7%. In data set [2] (po (intragastric), 10 mg/kg), the “AUC” value is 14484 ng·h/mL, the “Cmax” value came out at 6190 ng/mL and the “t1/2” value came to 3.4 h.

`Cc1oc(S(=O)(=O)NC(=O)Nc2c([C@H](C)C3CC3)ccc3c2CCC3)cc1C(C)(C)O` [Compound 22, (R)-N-((5-(1-cyclopropylethyl)-2,3-dihydro-1H-inden-4-yl)carbamoyl)-4-(2-hydroxypropan-2-yl)-5-methylfuran-2-sulfonamide]: the half-inhibitory concentration (IC50) in data set [1] (setting [3]) was ≤ 100 nM.

As to `Cc1cc2c(c(NC(=O)NS(=O)(=O)c3cc(C(C)(C)O)co3)c1[C@H](C)C1CC1)CCC2` [Compound 90, (R)-N-((5-(1-cyclopropylethyl)-6-methyl-2,3-dihydro-1H-inden-4-yl)carbamoyl)-4-(2-hydroxypropan-2-yl)furan-2-sulfonamide], in data set [1] (setting [3]), the IC50 was 100 to 500 nM.

On to `CC(C)(O)c1ncc(S(=N)(=O)NC(=O)Nc2c(CC3CCC3)ccc3c2CCC3)s1` (single isomer, unassigned) [Compound 19-2, RS- and SS-N-((5-(cyclobutylmethyl)-2,3-dihydro-1H-inden-4-yl)carbamoyl)-2-(2-hydroxypropan-2-yl)thiazole-5-sulfonimidamide], for which the IC50 in data set [1] (THP-1 pyroptosis) lay in the range of 100 to 500 nM.

In data set [1] (setting [3]), `CC(C)(O)c1coc(S(=O)(=O)NC(=O)Nc2c(C(C3CC3)C3CC3)ccc3c2CCC3)c1` [Compound 86, N-((5-(dicyclopropylmethyl)-2,3-dihydro-1H-inden-4-yl)carbamoyl)-4-(2-hydroxypropan-2-yl)furan-2-sulfonamide] registered an IC50 of 500 to 1000 nM.

In the case of “RS- and SS-N-((5-(cyclobutylmethyl)-2,3-dihydro-1H-inden-4-yl-7-d)carbamoyl)-4-(2-hydroxypropan-2-yl)furan-2-sulfonimidamide [Compound 39-2]”, the half-maximal inhibitory concentration (IC50) in data set [1] (THP-1 pyroptosis) fell in the range of 1000 to 5000 nM.

`CC(C)c1cccc([C@H](C)C2CC2)c1NC(=O)NS(=O)(=O)c1cc(C(C)(C)O)co1` [Compound 72]: the IC50 in data set [1] (setting [3]) lay in the range of 100 to 500 nM.

In turn, `CC(C)(O)c1coc(S(=O)(=O)NC(=O)Nc2c(CC3CCC3)ccc3c2CCC3)c1` [Compound 17, N-((5-(cyclobutylmethyl)-2,3-dihydro-1H-inden-4-yl)carbamoyl)-4-(2-hydroxypropan-2-yl)furan-2-sulfonamide] yielded an IC50 in data set [1] (setting [3]) of 100 to 500 nM.

As for `C[C@@H](c1ccc2c(c1NC(=O)NS(=O)(=O)c1sc(C(C)(C)O)cc1F)CCC2)C1CC1` [Compound 64, (R)-N-((5-(1-cyclopropylethyl)-2,3-dihydro-1H-inden-4-yl)carbamoyl)-3-fluoro-5-(2-hydroxypropan-2-yl)thiophene-2-sulfonamide], the IC50 in data set [1] (setting [3]) lay in the range of 100 to 500 nM.

Take `CC(C)(O)c1csc(S(=N)(=O)NC(=O)Nc2c(CC3CCC3)ccc3c2CCC3)c1` (stereo not shown) [Compound 83A, N-((5-(cyclobutylmethyl)-2,3-dihydro-1H-inden-4-yl)carbamoyl)-4-(2-hydroxypropan-2-yl)thiophene-2-sulfonimidamide]: in data set [1] (setting [3]), the IC50 is ≤ 100 nM.

The compound `C[C@H](c1ccc2c(c1NC(=O)NS(=O)(=O)c1cc(C(C)(C)O)co1)CCC2)C1CCC1` [Compound 81, (S)-N-((5-(1-cyclobutylethyl)-2,3-dihydro-1H-inden-4-yl)carbamoyl)-4-(2-hydroxypropan-2-yl)furan-2-sulfonamide] registered an IC50 in data set [1] (setting [3]) of 1000 to 5000 nM.

As for `CC(c1ccc2c(c1NC(=O)NS(=N)(=O)c1cc(C(C)(C)O)co1)CCC2)C1CCC1` (stereo not shown) [Compound 16, N-((5-(1-cyclobutylethyl)-2,3-dihydro-1H-inden-4-yl)carbamoyl)-4-(2-hydroxypropan-2-yl)furan-2-sulfonimidamide], in data set [1] (setting [3]), the IC50 is ≤ 100 nM.

For the compound `COc1cc(-c2cc(F)cc(C(C)C3CC3)c2NC(=O)NS(=O)(=O)c2cc(C(C)(C)O)co2)ccn1` (stereo not shown) [Compound 4, N-((2-(1-cyclopropylethyl)-4-fluoro-6-(2-methoxypyridin-4-yl)phenyl)carbamoyl)-4-(2-hydroxypropan-2-yl)furan-2-sulfonamide], the IC50 in data set [1] (setting [3]) lay within 100 to 500 nM.

Compound `CC(C)(O)c1coc(S(=O)(=O)NC(=O)Nc2c(CC3CCC3)ccc3c2CC3)c1` [Compound 33, N-((3-(cyclobutylmethyl)bicyclo[4.2.0]octa-1(6),2,4-trien-2-yl)carbamoyl)-4-(2-hydroxypropan-2-yl)furan-2-sulfonamide] showed an IC50 in data set [1] (setting [3]) of 100 to 500 nM.

In data set [1] (setting [3]), `C[C@@H](c1ccc2c(c1NC(=O)NS(=O)(=O)c1ccc(C3(O)CCOCC3)s1)CCC2)C1CC1` [Compound 68] returned a concentration for half-maximal inhibition (IC50) of 100 to 500 nM.

As for `CC(C)(O)c1ncc(S(=N)(=O)NC(=O)Nc2c(CC3CCC3)ccc3c2CCC3)s1` (single isomer, unassigned) [Compound 19-1, RS- and SS-N-((5-(cyclobutylmethyl)-2,3-dihydro-1H-inden-4-yl)carbamoyl)-2-(2-hydroxypropan-2-yl)thiazole-5-sulfonimidamide], the IC50 in data set [1] (THP-1 pyroptosis) was 1000 to 5000 nM.

On to `CC(C)c1cccc(CC2CCC2)c1NC(=O)NS(=N)(=O)c1cc(C(C)(C)O)co1` (single isomer, unassigned) [Compound 70-1, RS- and SS-N-((2-(cyclobutylmethyl)-6-isopropylphenyl)carbamoyl)-4-(2-hydroxypropan-2-yl)furan-2-sulfonimidamide], for which the IC50 in data set [1] (THP-1 pyroptosis) is ≤ 100 nM.

For `[2H]c1cc([C@@H](C)C2CC2)c(NC(=O)NS(=N)(=O)c2cc(C(C)(C)O)co2)c2c1CCC2` (single isomer, unassigned) [Compound 32-1, (RS, SC)- and (SS, SC)-N-((5-(1-cyclopropylethyl)-2,3-dihydro-1H-inden-4-yl-7-d)carbamoyl)-4-(2-hydroxypropan-2-yl)furan-2-sulfonimidamide], the half-inhibitory concentration (IC50) in data set [1] (THP-1 pyroptosis) lay in the range of 1000 to 5000 nM.

Compound “RS- and SS-N-((5-(cyclobutylmethyl)-2,3-dihydro-1H-inden-4-yl)carbamoyl)-4-(2-hydroxypropan-2-yl-1,1,1,3,3,3-d6)furan-2-sulfonimidamide [Compound 50-1]” returned an IC50 in data set [1] (THP-1 pyroptosis) of 500 to 1000 nM.

Turning to `C[C@@H](c1cc(C#N)c2c(c1NC(=O)NS(=O)(=O)c1cc(C(C)(C)O)co1)CCC2)C1CC1` [Compound 45, (R)-N-((7-cyano-5-(1-cyclopropylethyl)-2,3-dihydro-1H-inden-4-yl)carbamoyl)-4-(2-hydroxypropan-2-yl)furan-2-sulfonamide], in data set [1] (setting [3]), the IC50 lay in the range of 100 to 500 nM.

With `CC(c1ccc2c(c1NC(=O)NS(=N)(=O)c1cc(C(C)(C)O)co1)CCC2)C1CC1` (racemic) [Compound 52-1, (RS, SC)- and (SS, SC)-N-((5-(1-cyclopropylethyl)-2,3-dihydro-1H-inden-4-yl)carbamoyl)-4-(2-hydroxypropan-2-yl)furan-2-sulfonimidamide], the 50% inhibitory concentration (IC50) in data set [1] (THP-1 pyroptosis) is 1000 to 5000 nM.

With `C[C@H](c1ccc2c(c1NC(=O)N[S@@](=N)(=O)c1cc(C(C)(C)O)cs1)CCC2)C1CC1` [Compound 54-1], the IC50 in data set [1] (setting [3]) is 1000 to 5000 nM.

In turn, `CC(C)(O)c1coc(S(=N)(=O)NC(=O)Nc2c(CC3CCC3)ccc3c2CC3)c1` (single isomer, unassigned) [Compound 34-1, RS- and SS-N-((3-(cyclobutylmethyl)bicyclo[4.2.0]octa-1(6),2,4-trien-2-yl)carbamoyl)-4-(2-hydroxypropan-2-yl)furan-2-sulfonimidamide] came in with an IC50 in data set [1] (THP-1 pyroptosis) of 5000 to 10000 nM.
